Source: patent publication US5164295A, “Method for identifying amyloid protein-extracellular matrix protein affinity altering compounds” (The Upjohn Company, priority 1991, dated 1992)

Experiments:
[1] = target: HSPG core protein binding to AAP695 /s; assay: Effect of heparin on HSPG core protein binding to immobilized AAP695 /s (ELISA); conditions: heparin 400 μg/ml
Description: The assay used in studying the interaction between HSPG and protein ligands was an ELISA technique. Briefly, polystyrene micro-titer plates (Linbro, Flow Lab Inc.) were coated with a 100 μl solution, containing 1 μg/ml of the protein of interest (one of the three forms of AAP or fibronectin) in 20 mM NaHCO3 buffer pH 9.6. After incubation overnight at 4° C., the plates were rinsed with 0.15M NaCl, 20 mM Tris-Cl pH 7.5 (TBS). The plates were then incubated with 150 μl of 1% BSA in TBS for 2 hours at 37° C. to block the residual hydrophobic surface on the wells. After rinsing with TBS containing 0.05% (w/v) Tween 20 (TBS-Tween), 100 μl of various concentrations of HSPG in TBS-Tween were added. […] Finally, after further washing, the bound antibodies were detected by adding an alkaline phosphatase substrate solution (100 μl) containing 2 mg/ml p-nitrophenyl phosphate, 0.1 mM ZnCl2, 1 mM MgCl2 and 100 mM glycine pH 10. […] The absorbance of the released p-nitrophenol was measured at 405 nm with a Titertek Multiscan/MCC 340 (Flow Lab. Ltd.). The amounts of HSPG bound were determined by the net OD405 after substracting the OD from the blank wells in which the HSPG incubation step was omitted. When the actual amounts of HSPG bound were to be calculated, a set of standards (0.05-50 ng/well) of HSPG in NaHCO3 buffer were pre-coated into wells on the same plates as the test proteins. […]

[2] = target: T1, HSPG binding to AAP695 /s (Homo sapiens, UniProt P05067); assay: Effect of test compounds on intact HSPG binding to immobilized AAP695 /s (ELISA); conditions: for HSPG binding, % of control: AAP695
T1 construct: maintained the entire extracellular portion of the AAP; made in house; host or cells: insect cells (recombinant baculovirus)
Description: (§1) The assay comprised immobilizing AAP695 /s which was then exposed to free HSPG in the absence or presence of test compounds. Other aspects of the assay included exposing free HSPG to either immobilized AAP751 /s, or AAP770 /s, each in the absence or presence of test compounds. The assay was also performed with fibronectin as the immobilized protein in order to provide a positive control. In each case, a series of concentrations of HSPG and test compounds was used. Additionally, to determine whether or not the carbohydrate moiety of HSPG was involved in the binding to immobilized components, the carbohydrate moiety of HSPG was removed and assays were performed using the carbohydrate-free HSPG core protein. The test compounds used in experiments described here include heparin, dextran sulfate, chondroitin sulfate, dermatan sulfate, fibronectin, gelatin, bovine serum albumin (BSA), Ca^++ (CaCl2), Mg^++ (MgCl2), Mn^++ (MnCl2), Co^++ (Co(NO3)2), and Zn^++ (ZnCl2).
(§2) The assay used in studying the interaction between HSPG and protein ligands was an ELISA technique. Briefly, polystyrene micro-titer plates (Linbro, Flow Lab Inc.) were coated with a 100 μl solution, containing 1 μg/ml of the protein of interest (one of the three forms of AAP or fibronectin) in 20 mM NaHCO3 buffer pH 9.6. After incubation overnight at 4° C., the plates were rinsed with 0.15M NaCl, 20 mM Tris-Cl pH 7.5 (TBS). The plates were then incubated with 150 μl of 1% BSA in TBS for 2 hours at 37° C. to block the residual hydrophobic surface on the wells. After rinsing with TBS containing 0.05% (w/v) Tween 20 (TBS-Tween), 100 μl of various concentrations of HSPG in TBS-Tween were added. The plates were left overnight at 4° C., to permit maximum binding of HSPG to the coated proteins. The plates were then washed extensively and incubated for 2 hours at 37° C., with 100 μl of anti-HSPG diluted in TBS-Tween containing 0.1% BSA. The plates were washed again and incubated for another 2 hours with 100 μl of goat anti-rabbit-IgG conjugated with alkaline phosphatase (1:2000 dilution) in TBS-Tween containing BSA as above. Finally, after further washing, the bound antibodies were detected by adding an alkaline phosphatase substrate solution (100 μl) containing 2 mg/ml p-nitrophenyl phosphate, 0.1 mM ZnCl2, 1 mM MgCl2 and 100 mM glycine pH 10. The plates were left at room temperature for 15-120 minutes depending on the protein tested. The enzyme reaction was stopped by addition of 50 μl of 2M NaOH. The absorbance of the released p-nitrophenol was measured at 405 nm with a Titertek Multiscan/MCC 340 (Flow Lab. Ltd.). The amounts of HSPG bound were determined by the net OD405 after substracting the OD from the blank wells in which the HSPG incubation step was omitted. When the actual amounts of HSPG bound were to be calculated, a set of standards (0.05-50 ng/well) of HSPG in NaHCO3 buffer were pre-coated into wells on the same plates as the test proteins. The incubations proceeded as described above omitting the incubation of the HSPG solution with the HSPG standard coated wells. The actual amounts of HSPG bound to the test proteins were calculated from the OD405 standard curve produced by the HSPG standards using a Titersoft II E.J.A. software program (Flow Lab. Ltd.).
(§3) Heparin and dextran sulfate, respectively, were each used as test compounds to determine their effect on the HSPG binding to AAP forms and fibronectin. Various concentrations of heparin or dextran sulfate were added together with a constant amount of HSPG to wells coated with AAPs for fibronectin.

[3] = target: T2, HSPG binding to AAP751 /s (Homo sapiens, UniProt P05067); assay: Effect of test compounds on intact HSPG binding to immobilized AAP751 /s (ELISA); conditions: for HSPG binding, % of control: AAP751
T2 construct: maintained the entire extracellular portion of the AAP; made in house; host or cells: insect cells (recombinant baculovirus)
Description: as §1, §2, §3

[4] = tested on: HSPG binding to fibronectin; assay: Effect of test compounds on intact HSPG binding to immobilized fibronectin (ELISA); set-up: species or system bovine; conditions: for HSPG binding, % of control: fibronectin
Description: as §1
Fibronectin (from bovine plasma), heparin (grade II from porcine intestinal mucosa, average molecular weight=[…]), heparan sulfate, chondroitin sulfate, dextran sulfate, BSA, and alkaline phosphatase substrate were obtained from Sigma, St. Louis, Mo. Alkaline phosphatase conjugated goat anti-rabbit IgG was obtained from Boehringer-Manneheim, and heparitinase from ICN Biochemicals.
as §2, §3

[5] = test compound 500 μg/ml (Table II)

Sequence of HSPG binding to fibronectin (P07589 with tags, fused parts or gaps DEL1267-1357/DEL1723-1812 limits assumed): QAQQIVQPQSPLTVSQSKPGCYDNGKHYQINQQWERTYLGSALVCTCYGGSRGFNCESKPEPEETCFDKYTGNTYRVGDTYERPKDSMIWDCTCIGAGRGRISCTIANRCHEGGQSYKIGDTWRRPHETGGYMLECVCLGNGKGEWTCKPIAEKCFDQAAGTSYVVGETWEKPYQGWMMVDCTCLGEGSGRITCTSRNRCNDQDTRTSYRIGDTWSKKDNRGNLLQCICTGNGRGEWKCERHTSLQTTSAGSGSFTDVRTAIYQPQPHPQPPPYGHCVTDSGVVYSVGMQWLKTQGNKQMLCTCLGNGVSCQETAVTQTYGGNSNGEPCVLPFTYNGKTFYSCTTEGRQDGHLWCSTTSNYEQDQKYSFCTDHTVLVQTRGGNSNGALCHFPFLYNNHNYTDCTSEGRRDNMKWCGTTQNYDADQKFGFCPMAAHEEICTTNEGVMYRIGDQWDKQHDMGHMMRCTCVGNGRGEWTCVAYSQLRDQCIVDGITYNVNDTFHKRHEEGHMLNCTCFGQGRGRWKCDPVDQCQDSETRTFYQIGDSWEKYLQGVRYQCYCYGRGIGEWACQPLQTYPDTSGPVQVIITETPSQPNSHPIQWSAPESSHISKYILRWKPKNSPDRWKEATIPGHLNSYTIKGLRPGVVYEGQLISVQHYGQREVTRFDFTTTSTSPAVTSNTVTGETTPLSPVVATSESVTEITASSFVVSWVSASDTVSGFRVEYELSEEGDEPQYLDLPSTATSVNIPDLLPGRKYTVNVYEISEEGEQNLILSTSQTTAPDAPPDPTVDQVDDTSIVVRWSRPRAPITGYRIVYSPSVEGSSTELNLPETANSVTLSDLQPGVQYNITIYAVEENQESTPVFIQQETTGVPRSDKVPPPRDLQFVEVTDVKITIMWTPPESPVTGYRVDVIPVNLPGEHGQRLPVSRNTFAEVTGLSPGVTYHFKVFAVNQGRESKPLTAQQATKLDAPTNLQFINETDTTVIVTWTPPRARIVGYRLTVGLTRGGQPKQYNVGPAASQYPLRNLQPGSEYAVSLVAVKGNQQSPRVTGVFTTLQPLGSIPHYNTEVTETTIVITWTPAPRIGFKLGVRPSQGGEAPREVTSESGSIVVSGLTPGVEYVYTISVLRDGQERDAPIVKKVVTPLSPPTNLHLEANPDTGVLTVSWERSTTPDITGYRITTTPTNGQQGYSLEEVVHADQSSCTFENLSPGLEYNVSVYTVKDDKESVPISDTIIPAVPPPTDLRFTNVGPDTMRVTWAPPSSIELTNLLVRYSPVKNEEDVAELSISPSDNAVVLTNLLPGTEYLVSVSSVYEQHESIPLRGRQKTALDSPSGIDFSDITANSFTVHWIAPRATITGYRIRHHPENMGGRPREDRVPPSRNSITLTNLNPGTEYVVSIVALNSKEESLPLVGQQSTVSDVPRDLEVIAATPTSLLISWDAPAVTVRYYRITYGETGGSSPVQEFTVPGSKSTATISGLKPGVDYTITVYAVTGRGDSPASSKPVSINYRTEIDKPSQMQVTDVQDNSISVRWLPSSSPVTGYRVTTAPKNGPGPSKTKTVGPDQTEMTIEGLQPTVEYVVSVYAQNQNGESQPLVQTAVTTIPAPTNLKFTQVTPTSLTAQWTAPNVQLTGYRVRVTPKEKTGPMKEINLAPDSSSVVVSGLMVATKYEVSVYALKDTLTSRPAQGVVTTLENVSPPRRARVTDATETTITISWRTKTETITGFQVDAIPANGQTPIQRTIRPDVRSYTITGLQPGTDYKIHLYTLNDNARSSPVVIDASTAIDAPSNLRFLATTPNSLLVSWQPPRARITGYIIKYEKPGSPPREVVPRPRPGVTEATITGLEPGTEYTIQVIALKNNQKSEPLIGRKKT

heparin
Ki ([1]; calculated from Kdapp = Kdcon (1+[I]/Ki), AAP695 /s): ~1.6 µM | increase of Kd of HSPG core protein for AAP695 /s in presence of heparin [1]: approximately ten-fold | mode of inhibition of HSPG binding to AAP695 /s [2]: probably competitive | Activity: binding of intact HSPG, percentage ± SD of control ([2]; AAP695 /S, addition 500 μg/ml, HSPG 2 μg/ml): 10.2 ± 5.2% | HSPG binding, % of control ([2]; test compound 31.2 μg/ml): 29% | HSPG binding, % of control ([2]; test compound 62.5 μg/ml): 26% | HSPG binding, % of control ([2]; test compound 125 μg/ml): 16% | HSPG binding, % of control ([2]; test compound 250 μg/ml): 10% | HSPG binding, % of control [2, 5]: 7% | HSPG binding, % of control ([2]; test compound 1000 μg/ml): 3% | HSPG binding, % of control ([2]; test compound 2000 μg/ml): 2% | HSPG binding, % of control ([2]; test compound 4000 μg/ml): 1% | Ki ([2]; calculated from Kdapp = Kdcon (1+[I]/Ki), heparin 400 μg/ml, AAP695 /s): ~5.5 µM | factor by which HSPG affinity for AAP-695/s is reduced ([2]; heparin 400 μg/ml): 5-10 | increase of Kd of intact HSPG for AAP695 /s in presence of heparin ([2]; heparin 400 μg/ml): approximately four-fold | inhibition of HSPG binding to AAP695 /s ([2]; test compound 62.5 μg/ml): 75% | mode of inhibition of HSPG binding to AAP751 /s [3]: noncompetitive | Activity: binding of intact HSPG, percentage ± SD of control ([3]; AAP751 /S, addition 500 μg/ml, HSPG 2 μg/ml): 69 ± 12% | HSPG binding, % of control ([3]; test compound 31.2 μg/ml): 89% | HSPG binding, % of control ([3]; test compound 62.5 μg/ml): 75% | HSPG binding, % of control ([3]; test compound 125 μg/ml): 84% | HSPG binding, % of control ([3]; test compound 250 μg/ml): 82% | HSPG binding, % of control [3, 5]: 54% | HSPG binding, % of control ([3]; test compound 1000 μg/ml): 60% | HSPG binding, % of control ([3]; test compound 2000 μg/ml): 53% | HSPG binding, % of control ([3]; test compound 4000 μg/ml): 58% | effect of heparin on Kd of HSPG when using AAP751 /s ([3]; heparin 400 μg/ml, intact HSPG or core protein): No such effect | mode of inhibition of HSPG binding to fibronectin [4]: noncompetitive | Activity: binding of intact HSPG, percentage ± SD of control ([4]; Fibronectin, addition 500 μg/ml, HSPG 2 μg/ml): 71.7 ± 4.9% | HSPG binding, % of control ([4]; test compound 31.2 μg/ml): 93% | HSPG binding, % of control ([4]; test compound 62.5 μg/ml): 91% | HSPG binding, % of control ([4]; test compound 125 μg/ml): 73% | HSPG binding, % of control ([4]; test compound 250 μg/ml): 85% | HSPG binding, % of control [4, 5]: 79% | HSPG binding, % of control ([4]; test compound 1000 μg/ml): 79% | HSPG binding, % of control ([4]; test compound 2000 μg/ml): 77% | HSPG binding, % of control ([4]; test compound 4000 μg/ml): 74%
